Holding throughout (assay type): cell-based
In one test the target is T1, GLP-1 receptor (Homo sapiens, UniProt P43220).
T1 construct: expressed in transfected cells; host or cells: HEK293
In words: cAMP induction, firefly luciferase-based reporter assay in HEK293 cells co-transfected with GLP-1 receptor. The settings on record: EC50 at GLP-1 Receptor. An excerpt: (§1) This example describes an exemplary method of testing the biological activity of the peptides of the present disclosures, which method involves assaying cAMP synthesis.

A further test has as its target T2, glucagon receptor (Homo sapiens, UniProt P47871).
T2 construct: expressed in transfected cells; host or cells: HEK293
As to the kind of experiment: cAMP induction, firefly luciferase-based reporter assay in HEK293 cells co-transfected with glucagon receptor. The settings on record: for pEC50: EC50 at Glucagon Receptor.
Text: as §1
On the technique in general: In a reporter assay the amount or activity of a reporter protein is the signal.

A further test addresses T3, GIP receptor (Homo sapiens, UniProt P48546).
T3 construct: expressed in transfected cells; host or cells: HEK293
T3 sequence (P48546 22-466): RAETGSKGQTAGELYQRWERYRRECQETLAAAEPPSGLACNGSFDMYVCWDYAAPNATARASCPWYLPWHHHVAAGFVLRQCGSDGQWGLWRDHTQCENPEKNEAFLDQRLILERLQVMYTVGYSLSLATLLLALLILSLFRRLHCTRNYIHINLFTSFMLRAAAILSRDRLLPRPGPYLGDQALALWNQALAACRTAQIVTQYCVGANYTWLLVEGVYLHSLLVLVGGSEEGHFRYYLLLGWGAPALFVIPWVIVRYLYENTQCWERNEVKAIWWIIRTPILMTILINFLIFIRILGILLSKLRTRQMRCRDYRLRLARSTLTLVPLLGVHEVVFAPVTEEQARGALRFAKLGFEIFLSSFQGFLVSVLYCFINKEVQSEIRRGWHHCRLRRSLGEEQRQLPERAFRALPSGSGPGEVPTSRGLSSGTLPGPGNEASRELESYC
As to the kind of experiment: cAMP induction, firefly luciferase-based reporter assay in HEK293 cells co-transfected with GIP receptor. To be noted: EC50 at GIP Receptor.
Text: as §1

The mark [1] stands for this setting: Table 3, analogs of SEQ ID NO: 18 varying at position 3.
The mark [2] stands for this setting: Table 2, analogs of SEQ ID NO: 18 varying at positions 16-21.

pEC50: −log10 of the molar value. *1 amine or outer side, *2 acyl side, *3 side chain or, on linkers, in order; H or OH if unused. Where a SMILES comes first, the peptide text is derived from it. Side-chain parts run from the residue outwards. [ ]: non-standard residue; d: D form. The star is where a group is joined. γGlu = O=C(O)[C@H](CCC(=O)[*:2])N[*:1]; Palmitoyl = CCCCCCCCCCCCCCCC(=O)*; Aib = CC(C)(N)C(=O)O

The pEC50 is the EC50 on a negative log10 scale, so that one unit is a factor of ten. Higher therefore signals a low EC50.

T2 sequence (P47871 26-477): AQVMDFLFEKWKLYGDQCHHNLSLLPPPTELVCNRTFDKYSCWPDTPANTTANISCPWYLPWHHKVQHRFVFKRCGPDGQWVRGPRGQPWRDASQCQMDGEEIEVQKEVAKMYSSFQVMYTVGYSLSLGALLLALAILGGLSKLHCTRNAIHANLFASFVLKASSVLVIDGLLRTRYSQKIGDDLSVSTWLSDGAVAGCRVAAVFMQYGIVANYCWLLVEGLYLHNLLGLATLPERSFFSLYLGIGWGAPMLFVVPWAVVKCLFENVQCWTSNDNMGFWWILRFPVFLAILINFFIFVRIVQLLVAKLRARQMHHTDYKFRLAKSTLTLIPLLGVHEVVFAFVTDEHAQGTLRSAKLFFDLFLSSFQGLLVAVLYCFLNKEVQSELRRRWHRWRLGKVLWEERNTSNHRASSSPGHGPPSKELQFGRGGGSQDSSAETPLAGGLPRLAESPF
T1 sequence (P43220 24-463): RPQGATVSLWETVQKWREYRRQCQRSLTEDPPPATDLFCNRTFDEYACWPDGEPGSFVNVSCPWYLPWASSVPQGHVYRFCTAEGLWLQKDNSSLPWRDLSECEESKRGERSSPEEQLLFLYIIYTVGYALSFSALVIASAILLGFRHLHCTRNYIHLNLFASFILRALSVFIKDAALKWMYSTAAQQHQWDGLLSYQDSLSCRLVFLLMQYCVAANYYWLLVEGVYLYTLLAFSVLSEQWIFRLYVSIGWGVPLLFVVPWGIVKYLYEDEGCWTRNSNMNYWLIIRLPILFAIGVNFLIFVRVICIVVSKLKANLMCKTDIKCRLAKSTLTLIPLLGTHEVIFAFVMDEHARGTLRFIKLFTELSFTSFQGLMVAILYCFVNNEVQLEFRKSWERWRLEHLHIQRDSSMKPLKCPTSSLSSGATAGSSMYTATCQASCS

Take `CCCCCCCCCCCCCCCC(=O)N[C@@H](CCC(=O)NCCCC[C@H](NC(=O)[C@H](CC(=O)O)NC(=O)[C@H](CO)NC(=O)[C@@H](NC(=O)[C@H](Cc1ccccc1)NC(=O)[C@@H](NC(=O)CNC(=O)[C@H](CC(C)C)NC(=O)C(C)(C)NC(=O)[C@@H](N)Cc1c[nH]cn1)[C@@H](C)O)[C@@H](C)O)C(=O)N[C@@H](CO)C(=O)N[C@@H](CCCCN)C(=O)N[C@@H](Cc1ccc(O)cc1)C(=O)N[C@@H](CC(C)C)C(=O)N[C@@H](CCC(=O)O)C(=O)N[C@@H](CCC(=O)O)C(=O)N[C@@H](CCCNC(=N)N)C(=O)N[C@@H](C)C(=O)N[C@@H](C)C(=O)N[C@@H](CCC(N)=O)C(=O)N[C@@H](CCC(=O)O)C(=O)N[C@@H](Cc1ccccc1)C(=O)N[C@H](C(=O)N[C@@H](CCC(N)=O)C(=O)N[C@@H](Cc1c[nH]c2ccccc12)C(=O)N[C@@H](CC(C)C)C(=O)N[C@@H](CC(C)C)C(=O)N[C@@H](CCC(=O)O)C(=O)NCC(=O)NCC(=O)N1CCC[C@H]1C(=O)N[C@@H](CO)C(=O)N[C@@H](CO)C(=O)NCC(=O)N[C@@H](C)C(=O)N1CCC[C@H]1C(=O)N1CCC[C@H]1C(=O)N1CCC[C@H]1C(=O)N[C@@H](CO)C(N)=O)C(C)C)C(=O)O` [compound 32] (H-H[Aib]LGTFTSDK([γGlu-Palmitoyl])SKYLEERAAQEFVQWLLEGGPSSGAPPPS-NH2): the pEC50 is 9.41 on GLP-1 receptor (setting [1]) and 9.14 at GIP receptor (setting [1]). In addition, the “EC50 at Glucagon Receptor” value on glucagon receptor (setting [1]) is “Not active”.

For the compound `CCCCCCCCCCCCCCCC(=O)N[C@@H](CCC(=O)NCCCC[C@H](NC(=O)[C@H](CC(=O)O)NC(=O)[C@H](CO)NC(=O)[C@@H](NC(=O)[C@H](Cc1ccccc1)NC(=O)[C@@H](NC(=O)CNC(=O)[C@H](CCC(N)=O)NC(=O)C(C)(C)NC(=O)[C@@H](N)Cc1c[nH]cn1)[C@@H](C)O)[C@@H](C)O)C(=O)N[C@@H](CO)C(=O)N[C@@H](CCCCN)C(=O)N[C@@H](Cc1ccc(O)cc1)C(=O)N[C@@H](CC(C)C)C(=O)N[C@@H](CC(=O)O)C(=O)N[C@@H](CCC(=O)O)C(=O)N[C@@H](CCCNC(=N)N)C(=O)N[C@@H](C)C(=O)N[C@@H](C)C(=O)N[C@@H](CCCCN)C(=O)N[C@@H](CC(=O)O)C(=O)N[C@@H](Cc1ccccc1)C(=O)N[C@H](C(=O)N[C@@H](CCC(N)=O)C(=O)N[C@@H](Cc1c[nH]c2ccccc12)C(=O)N[C@@H](CC(C)C)C(=O)N[C@@H](CC(C)C)C(=O)N[C@@H](CC(=O)O)C(=O)NCC(=O)NCC(=O)N1CCC[C@H]1C(=O)N[C@@H](CO)C(=O)N[C@@H](CO)C(=O)NCC(=O)N[C@@H](C)C(=O)N1CCC[C@H]1C(=O)N1CCC[C@H]1C(=O)N1CCC[C@H]1C(=O)N[C@@H](CO)C(N)=O)C(C)C)C(=O)O` [compound 20] (H-H[Aib]QGTFTSDK([γGlu-Palmitoyl])SKYLDERAAKDFVQWLLDGGPSSGAPPPS-NH2; N-terminus assumed), the pEC50 was 11.00 at GLP-1 receptor (setting [2]), 11.22 on glucagon receptor (setting [2]) and 11.30 on GIP receptor (setting [2]).

Regarding `CCCCCCCCCCCCCCCC(=O)N[C@@H](CCC(=O)NCCCC[C@H](NC(=O)[C@H](CC(=O)O)NC(=O)[C@H](CO)NC(=O)[C@@H](NC(=O)[C@H](Cc1ccccc1)NC(=O)[C@@H](NC(=O)CNC(=O)[C@H](CCC(N)=O)NC(=O)C(C)(C)NC(=O)[C@@H](N)Cc1c[nH]cn1)[C@@H](C)O)[C@@H](C)O)C(=O)N[C@@H](CO)C(=O)N[C@@H](CCCCN)C(=O)N[C@@H](Cc1ccc(O)cc1)C(=O)N[C@@H](CC(C)C)C(=O)N[C@@H](CC(=O)O)C(=O)N[C@@H](CCC(=O)O)C(=O)N[C@@H](CCC(N)=O)C(=O)N[C@@H](C)C(=O)N[C@@H](C)C(=O)NC(C)(C)C(=O)N[C@@H](CCC(=O)O)C(=O)N[C@@H](Cc1ccccc1)C(=O)N[C@H](C(=O)N[C@@H](CCC(N)=O)C(=O)N[C@@H](Cc1c[nH]c2ccccc12)C(=O)N[C@@H](CC(C)C)C(=O)N[C@@H](CC(C)C)C(=O)N[C@@H](CC(=O)O)C(=O)NCC(=O)NCC(=O)N1CCC[C@H]1C(=O)N[C@@H](CO)C(=O)N[C@@H](CO)C(=O)NCC(=O)N[C@@H](C)C(=O)N1CCC[C@H]1C(=O)N1CCC[C@H]1C(=O)N1CCC[C@H]1C(=O)N[C@@H](CO)C(N)=O)C(C)C)C(=O)O` [compound 26] (H-H[Aib]QGTFTSDK([γGlu-Palmitoyl])SKYLDEQAA[Aib]EFVQWLLDGGPSSGAPPPS-NH2), the pEC50 was 12.00 on GLP-1 receptor (setting [2]), 11.40 on glucagon receptor (setting [2]) and 12.00 at GIP receptor (setting [2]).

As to `CCCCCCCCCCCCCCCC(=O)N[C@@H](CCC(=O)NCCCC[C@H](NC(=O)[C@H](CC(=O)O)NC(=O)[C@H](CO)NC(=O)[C@@H](NC(=O)[C@H](Cc1ccccc1)NC(=O)[C@@H](NC(=O)CNC(=O)[C@H](CCC(N)=O)NC(=O)C(C)(C)NC(=O)[C@@H](N)Cc1c[nH]cn1)[C@@H](C)O)[C@@H](C)O)C(=O)N[C@@H](CO)C(=O)N[C@@H](CCCCN)C(=O)N[C@@H](Cc1ccc(O)cc1)C(=O)N[C@@H](CC(C)C)C(=O)N[C@@H](CCC(=O)O)C(=O)N[C@@H](CCC(=O)O)C(=O)N[C@@H](CCCNC(=N)N)C(=O)N[C@@H](C)C(=O)N[C@@H](C)C(=O)N[C@@H](CCC(N)=O)C(=O)N[C@@H](CCC(=O)O)C(=O)N[C@@H](Cc1ccccc1)C(=O)N[C@H](C(=O)N[C@@H](CCC(N)=O)C(=O)N[C@@H](Cc1c[nH]c2ccccc12)C(=O)N[C@@H](CC(C)C)C(=O)N[C@@H](CC(C)C)C(=O)N[C@@H](CCC(=O)O)C(=O)NCC(=O)NCC(=O)N1CCC[C@H]1C(=O)N[C@@H](CO)C(=O)N[C@@H](CO)C(=O)NCC(=O)N[C@@H](C)C(=O)N1CCC[C@H]1C(=O)N1CCC[C@H]1C(=O)N1CCC[C@H]1C(=O)N[C@@H](CO)C(N)=O)C(C)C)C(=O)O` [compound 18] (H-H[Aib]QGTFTSDK([γGlu-Palmitoyl])SKYLEERAAQEFVQWLLEGGPSSGAPPPS-NH2), the pEC50 on GLP-1 receptor (Table 1) was 11.10; on GLP-1 receptor (setting [2]) it was 11.00; at glucagon receptor (setting [2]), 11.30; at glucagon receptor (setting [1]), 11.30; at GIP receptor (setting [2]), 11.40; at GIP receptor (setting [1]), 11.40.

Consider `CCCCCCCCCCCCCCCC(=O)N[C@@H](CCC(=O)NCCCC[C@H](NC(=O)[C@H](CC(=O)O)NC(=O)[C@H](CO)NC(=O)[C@@H](NC(=O)[C@H](Cc1ccccc1)NC(=O)[C@@H](NC(=O)CNC(=O)[C@H](CCC(N)=O)NC(=O)C(C)(C)NC(=O)[C@@H](N)Cc1c[nH]cn1)[C@@H](C)O)[C@@H](C)O)C(=O)N[C@@H](CO)C(=O)N[C@@H](CCCCN)C(=O)N[C@@H](Cc1ccc(O)cc1)C(=O)N[C@@H](CC(C)C)C(=O)N[C@@H](CC(=O)O)C(=O)N[C@@H](CCC(=O)O)C(=O)N[C@@H](CCCNC(=N)N)C(=O)N[C@@H](C)C(=O)N[C@@H](C)C(=O)N[C@@H](Cc1c[nH]cn1)C(=O)N[C@@H](CC(=O)O)C(=O)N[C@@H](Cc1ccccc1)C(=O)N[C@H](C(=O)N[C@@H](CCC(N)=O)C(=O)N[C@@H](Cc1c[nH]c2ccccc12)C(=O)N[C@@H](CC(C)C)C(=O)N[C@@H](CC(C)C)C(=O)N[C@@H](CC(=O)O)C(=O)NCC(=O)NCC(=O)N1CCC[C@H]1C(=O)N[C@@H](CO)C(=O)N[C@@H](CO)C(=O)NCC(=O)N[C@@H](C)C(=O)N1CCC[C@H]1C(=O)N1CCC[C@H]1C(=O)N1CCC[C@H]1C(=O)N[C@@H](CO)C(N)=O)C(C)C)C(=O)O` [compound 19] (H-H[Aib]QGTFTSDK([γGlu-Palmitoyl])SKYLDERAAHDFVQWLLDGGPSSGAPPPS-NH2), for which the pEC50 is 10.74 at GLP-1 receptor (setting [2]), 10.92 at glucagon receptor (setting [2]) and 10.82 at GIP receptor (setting [2]).

`CCCCCCCCCCCCCCCC(=O)N[C@@H](CCC(=O)NCCCC[C@H](NC(=O)[C@H](CC(=O)O)NC(=O)[C@H](CO)NC(=O)[C@@H](NC(=O)[C@H](Cc1ccccc1)NC(=O)[C@@H](NC(=O)CNC(=O)[C@H](CCC(N)=O)NC(=O)C(C)(C)NC(=O)[C@@H](N)Cc1c[nH]cn1)[C@@H](C)O)[C@@H](C)O)C(=O)N[C@@H](CO)C(=O)N[C@@H](CCCCN)C(=O)N[C@@H](Cc1ccc(O)cc1)C(=O)N[C@@H](CC(C)C)C(=O)N[C@@H](CC(=O)O)C(=O)N[C@@H](CCC(=O)O)C(=O)N[C@@H](CCCNC(=N)N)C(=O)N[C@@H](C)C(=O)NC(C)(C)C(=O)N[C@@H](C)C(=O)N[C@@H](CCC(=O)O)C(=O)N[C@@H](Cc1ccccc1)C(=O)N[C@H](C(=O)N[C@@H](CCC(N)=O)C(=O)N[C@@H](Cc1c[nH]c2ccccc12)C(=O)N[C@@H](CC(C)C)C(=O)N[C@@H](CC(C)C)C(=O)N[C@@H](CC(=O)O)C(=O)NCC(=O)NCC(=O)N1CCC[C@H]1C(=O)N[C@@H](CO)C(=O)N[C@@H](CO)C(=O)NCC(=O)N[C@@H](C)C(=O)N1CCC[C@H]1C(=O)N1CCC[C@H]1C(=O)N1CCC[C@H]1C(=O)N[C@@H](CO)C(N)=O)C(C)C)C(=O)O` [compound 23] (H-H[Aib]QGTFTSDK([γGlu-Palmitoyl])SKYLDERA[Aib]AEFVQWLLDGGPSSGAPPPS-NH2): the pEC50 at GLP-1 receptor (setting [2]) was 11.15; at glucagon receptor (setting [2]) it was 9.58; on GIP receptor (setting [2]) it was 10.89.
